Counter-ions that a name gives are not always drawn.
Experiments:
[1] = test system: CAKI-1 human renal tumor xenografts; conditions: i.v., equivalent dosages
Method: The 0.8 mg/mL solution was diluted with saline to 0.53 and 0.35 mg/mL.
The 0.975 mg/mL solution was further diluted with saline to 0.65 and 0.43 mg/mL.
Both compounds and vehicle were administered to mice by animal's body weight on each day of treatment with the injection volume being 0.1 mL/10 g of body weight.
Tumors were measured and volume determined using formula L×W^2/2=mm^3; and weight calculated assuming 1 mm^3=1 mg. The study was terminated 95 days after tumor implantation.

[2] = cumulative dose; cited from earlier work
[3] = in vivo; cited from earlier work
in vivo = conditions: male, athymic NCr-nu/nu, mouse, iv, 8 mg/kg

SMILES	difference in tumor growth, DOX orotate compared with DOX [1]	total dosage at which irreversible myocardial toxicity leading to congestive heart failure may be encountered [2] [mg/m^2]	AUC [3] [µg·h/mL]	concentration at 1 day after the last injection (day 26) (in vivo) [ng/g]
COc1cccc2c1C(=O)c1c(O)c3c(c(O)c1C2=O)C[C@@](O)(C(=O)CO)C[C@@H]3O[C@H]1C[C@H](N)[C@H](O)[C@H](C)O1.O=C(O)c1cc(=O)[nH]c(=O)[nH]1 [DOX orotate, doxorubicin orotate]	no significant difference			
COc1cccc2c1C(=O)c1c(O)c3c(c(O)c1C2=O)C[C@@](O)(C(=O)CO)C[C@@H]3O[C@H]1C[C@H](N)[C@H](O)[C@H](C)O1 [DOX, (85, 105)-10-[(3-amino-2,3,6-trideoxy-(c-L-lyxo-hexopyranosyl)oxy]-8-glycolyl 1-7,8,9,10-tetrahydro-6,8,11-trihydroxy-1-methoxy-5,12-naphthacenedione hydrochloride]		~550	9900	7400

Reference: patent US8148339B2, “Method of reducing cardiac levels of doxorubicin when given as orotate salt” (Savvipharm Inc, priority 2006, dated 2012)
